The target of this assay is Serine/threonine-protein kinase ATR (Homo sapiens, UniProt Q13535). As to the kind of experiment: ATR Inhibition Assay. The method, then:
Detection of ATR kinase activity utilized the Mobility shift assay to measure the phosphorylation of the substrate protein FAM-RAD17 (GL, Cat. No. 514318, Lot. No. P19042-MJ524315). The assay was developed and conducted at Chempartner. All the test compounds were dissolved in 100% DMSO at concentration of 20 mM, then prepare compounds and conducted the assay as follows: 1) Transfer […] 20 mM compound to 40 μl of 100% DMSO in a 96-well plate.2) Serially dilute the compound by transferring 20 μl to 60 μl of 100% DMSO in the next well and so forth for a total of 10 concentrations.3) Add 100 μl of 100% DMSO to two empty wells for no compound control and no enzyme control in the same 96-well plate. Mark the plate as source plate.4) Transfer 40 μl of compound from source plate to a new 384-well plate as the intermediate plate.5) Transfer 60 nl compounds to assay plate by Echo.6) Add ATR kinase (Eurofins, Cat. No. 14-953, Lot. No. D14 JP007N) into Kinase base buffer (50 mM HEPES, pH 7.5; 0.0015% Brij-35; 0.01% Triton) to prepare 2 enzyme solution, then add 10 μl of 2 enzyme solution to each well of the 384-well assay plate, incubate at room temperature for 10 min.7) Add FAM-RAD17 and ATP (Sigma, Cat. No. A7699-1G, CAS No. 987-65-5) in the kinase base buffer to prepare 2 peptide solution, then add 10 μl to the assay plate.8) Incubate at 28 C. for specified period of time. […]

Serine/threonine-protein kinase ATR, sequence (Q13535 whole entry): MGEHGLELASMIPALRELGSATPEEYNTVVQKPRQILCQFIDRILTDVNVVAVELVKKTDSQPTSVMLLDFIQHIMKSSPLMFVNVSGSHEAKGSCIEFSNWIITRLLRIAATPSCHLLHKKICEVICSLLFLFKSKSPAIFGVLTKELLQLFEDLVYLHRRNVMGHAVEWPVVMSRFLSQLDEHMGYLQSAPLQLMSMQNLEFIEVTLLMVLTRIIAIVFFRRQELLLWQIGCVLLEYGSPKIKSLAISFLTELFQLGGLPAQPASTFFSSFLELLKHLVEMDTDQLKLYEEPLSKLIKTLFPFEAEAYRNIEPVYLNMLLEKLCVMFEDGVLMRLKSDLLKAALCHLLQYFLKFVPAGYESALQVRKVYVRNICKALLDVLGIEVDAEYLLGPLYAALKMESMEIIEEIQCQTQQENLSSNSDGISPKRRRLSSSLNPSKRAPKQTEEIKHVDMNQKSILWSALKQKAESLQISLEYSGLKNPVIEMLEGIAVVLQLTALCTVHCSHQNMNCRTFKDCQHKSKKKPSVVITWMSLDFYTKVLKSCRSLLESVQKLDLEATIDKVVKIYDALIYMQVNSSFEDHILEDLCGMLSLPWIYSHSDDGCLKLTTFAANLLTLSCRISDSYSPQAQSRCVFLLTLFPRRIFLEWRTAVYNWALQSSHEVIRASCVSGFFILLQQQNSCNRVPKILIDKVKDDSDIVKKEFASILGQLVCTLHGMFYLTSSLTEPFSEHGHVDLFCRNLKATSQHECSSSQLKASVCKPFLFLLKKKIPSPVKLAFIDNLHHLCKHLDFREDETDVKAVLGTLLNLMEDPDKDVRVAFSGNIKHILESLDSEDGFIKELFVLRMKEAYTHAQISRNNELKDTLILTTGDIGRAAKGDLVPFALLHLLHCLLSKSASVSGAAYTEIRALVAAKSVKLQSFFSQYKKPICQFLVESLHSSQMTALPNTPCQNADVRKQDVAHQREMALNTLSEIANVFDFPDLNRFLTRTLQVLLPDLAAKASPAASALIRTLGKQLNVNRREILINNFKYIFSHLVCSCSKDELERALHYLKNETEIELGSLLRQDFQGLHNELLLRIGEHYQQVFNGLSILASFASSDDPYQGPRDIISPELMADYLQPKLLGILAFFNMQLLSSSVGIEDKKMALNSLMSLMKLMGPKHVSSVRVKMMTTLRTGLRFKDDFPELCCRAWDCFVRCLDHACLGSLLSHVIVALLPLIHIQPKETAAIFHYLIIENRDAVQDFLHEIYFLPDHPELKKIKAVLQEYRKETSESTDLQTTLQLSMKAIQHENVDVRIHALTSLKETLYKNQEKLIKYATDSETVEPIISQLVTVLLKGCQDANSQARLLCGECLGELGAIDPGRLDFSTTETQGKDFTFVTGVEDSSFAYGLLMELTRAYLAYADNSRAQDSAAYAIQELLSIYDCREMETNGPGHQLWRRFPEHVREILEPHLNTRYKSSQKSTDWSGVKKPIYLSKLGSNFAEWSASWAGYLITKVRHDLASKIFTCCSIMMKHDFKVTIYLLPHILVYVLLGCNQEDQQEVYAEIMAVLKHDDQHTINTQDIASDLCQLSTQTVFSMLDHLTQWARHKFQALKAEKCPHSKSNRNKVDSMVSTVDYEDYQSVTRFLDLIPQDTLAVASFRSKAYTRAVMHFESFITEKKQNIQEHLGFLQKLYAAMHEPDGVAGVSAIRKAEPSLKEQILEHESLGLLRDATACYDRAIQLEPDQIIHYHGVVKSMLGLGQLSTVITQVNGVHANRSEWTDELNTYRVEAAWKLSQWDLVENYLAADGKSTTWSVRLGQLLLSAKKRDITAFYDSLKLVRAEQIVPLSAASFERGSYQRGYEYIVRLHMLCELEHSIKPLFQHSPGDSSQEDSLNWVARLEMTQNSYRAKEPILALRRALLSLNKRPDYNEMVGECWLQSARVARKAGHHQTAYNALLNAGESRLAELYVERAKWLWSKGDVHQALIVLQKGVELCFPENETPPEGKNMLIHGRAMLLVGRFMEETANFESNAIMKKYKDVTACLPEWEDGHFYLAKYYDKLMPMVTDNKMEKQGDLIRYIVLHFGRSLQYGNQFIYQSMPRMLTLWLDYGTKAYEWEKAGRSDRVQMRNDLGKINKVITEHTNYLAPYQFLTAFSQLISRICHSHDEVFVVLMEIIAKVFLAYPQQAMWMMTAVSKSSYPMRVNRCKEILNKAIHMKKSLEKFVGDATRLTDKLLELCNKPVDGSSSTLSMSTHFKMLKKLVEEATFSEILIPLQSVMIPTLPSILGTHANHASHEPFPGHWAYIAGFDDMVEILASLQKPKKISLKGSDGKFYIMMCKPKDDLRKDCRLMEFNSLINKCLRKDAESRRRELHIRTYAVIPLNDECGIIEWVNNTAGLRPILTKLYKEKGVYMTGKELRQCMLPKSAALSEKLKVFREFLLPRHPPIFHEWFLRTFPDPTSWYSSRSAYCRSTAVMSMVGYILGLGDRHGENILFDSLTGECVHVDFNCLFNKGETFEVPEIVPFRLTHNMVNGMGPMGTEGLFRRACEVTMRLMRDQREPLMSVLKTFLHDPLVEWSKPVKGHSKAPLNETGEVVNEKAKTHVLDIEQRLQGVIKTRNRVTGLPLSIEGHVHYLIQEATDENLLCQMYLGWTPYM

By IC50 is commonly meant the concentration at which inhibition is half-maximal. Compound `C[C@@H]1COCCN1c1cc(-c2ccnn2C)c2c(Cl)nc(-c3ccn[nH]3)n2n1` [US20230295166, Compound 61] registered an IC50 of less than 100 nM. The same measure for `Cc1cc(-c2nsc3c(N4CCCCS4(=O)=O)cc(N4CCOC[C@H]4C)nc23)[nH]n1` [US20230295166, Compound 82]: less than 100 nM.

Values taken from BindingDB's records for patent US20230295166 (Antengene Discovery, 2023).
